Key:
[1] = test system: SKH-1 hairless mouse dorsal skin; experiment: Test D. Murine animal studies: thymine dimer formation (DNA damage) in dorsal skin; format: in vivo
Procedure: Test D. Murine Animal Studies
(§1) The UVA, UVB and Solar Simulated Light (SSL) treatment groups included mice that were left untouched in their cages (no preventative treatment) and mice treated topically on their backs with cream vehicle or AR compounds in the cream vehicle and rubbed with a glove. At 20 minutes post treatment the mice were exposed to 180 mJ/cm^2 of UVA, UVB or SSL equivalent to one hour of noon day summer sunlight. One, four, eight and twenty-four hours post UVA, UVB or SSL exposure, the mice were euthanized by IP Ketamine/Xylazine injection and bled.
(§2) The no UVA, UVB and SSL treatment groups included mice which were left untouched in their cages (no preventative treatment) and mice treated topically on their backs with cream vehicle and AR compounds in cream vehicle as indicated above. After treatment the mice were placed back into their cages, away from sunlight. One, four, eight and twenty-four hours post treatment, the no UVA, UVB and SSL treated mice were euthanized by IP Ketamine/Xylazine injection and bled.
(§3) For the animal groups above, post euthanasia, the dorsal and belly skin was collected and preserved in Zamboni's fixative for future studies. […] The skin was analyzed in-house by immunohistostaining (p53, thymine dimer, XPC and other DNA repair enzymes, collagen, elastin, etc.) and confocal microscopy. […]

xpc [2] = experiment: Test D. Murine animal studies: up-regulation of DNA repair enzyme xpc in dorsal skin; format: in vivo, mouse; settings: 5% in cream vehicle, topical
Procedure: as §1, §2, §3

xpc [3] = experiment: Test E. Human skin study: xpc production
Procedure: Human skin was obtained from the University of Minnesota BioNet Tissue Procurement Facility and stored on ice or in cell culture media until ready to be used. All samples were kept away from sunlight. The skin was cut into pieces and placed in 6-well cell culture plates with a small amount of culture media at the bottom of the well but not enough to cover the top of the tissue. Using a gloved hand, the skin was rubbed with cream vehicle or AR drug in the cream vehicle. At 20 minutes post treatment the skin was exposed to 180 mJ/cm^2 of UVA, UVB or Solar Simulated Light (SSL) equivalent to one hour of noon day summer sunlight. Post UVA, UVB or SSL exposure, additional media was placed in the bottom of the wells and the plates moved to the tissue culture incubator (37° C., 5% CO2). Samples were removed from the incubator and placed in Zamboni's fixative for future studies at one, four, eight and twenty-four hours post UVA, UVB or SSL exposure.
Samples not exposed to UVA, UVB or SSL light were placed into 6-well plates with a small amount of cell culture media but not enough to cover the top of the tissue and stored in the cell culture incubator. […]
All skin samples were analyzed in-house by immunohistostaining (p53, thymine dimer, XPC and other DNA repair enzymes, collagen, elastin, etc.) and confocal microscopy.

Structure (SMILES) | thymine dimer immuno-reactivity of skin section ([1]; 5% in cream vehicle, topical, no SSL irradiation, 8 hour time point) | xpc immuno-reactivity (xpc antibody) (xpc [2]; no SSL irradiation) | xpc levels / xpc staining in non-irradiated human skin (xpc [3]; human skin not exposed to SSL, compared with SSL only control) | time post application at which xpc stimulation is still evident (xpc [3]; non SSL damaged human skin) [h] | protection against thymine dimer formation (DNA damage) ([1]; in cream vehicle, topical 20 minutes prior to UVB 6 KJ/m^2, harvested 4 hours after irradiation, vs UV only control) | xpc production in SSL exposed skin (xpc [2]; solar simulated light equivalent to 1 h noon time summer sun light, vs SSL cream-only control)
C[C@@]12C(=O)NC(=O)N3CCCN4C(=O)NC(=O)[C@]1(C)[C@H]4[C@H]32 [Compound 10] | completely negative | significant immuno-reactivity | higher levels of xpc than the SSL only control | ≥ 8 |  | 
CCCC(=O)N(CCn1cc(C)c(=O)[nH]c1=O)CCn1cc(C)c(=O)[nH]c1=O [Compound 24a] |  |  |  |  | protected against thymine dimer formation | stimulated xpc production

— patent US9403778B2, “Agents that prevent or repair skin damage” (Regents of the University of Minnesota, priority 2012, dated 2016)
